Tests used:
[1] = target: CDK8/Cyclin C (Homo sapiens) (UniProt P49336+P24863); assay: Binding affinity to CDK8/CycC (unknown origin) assessed as residence time; format: protein-complex assay
[2] = target: T1, Fatty-acid amide hydrolase 1 (Homo sapiens) (UniProt O00519); assay: Inhibition of recombinant human FAAH assessed as dissociation half life
T1 sequence (whole entry): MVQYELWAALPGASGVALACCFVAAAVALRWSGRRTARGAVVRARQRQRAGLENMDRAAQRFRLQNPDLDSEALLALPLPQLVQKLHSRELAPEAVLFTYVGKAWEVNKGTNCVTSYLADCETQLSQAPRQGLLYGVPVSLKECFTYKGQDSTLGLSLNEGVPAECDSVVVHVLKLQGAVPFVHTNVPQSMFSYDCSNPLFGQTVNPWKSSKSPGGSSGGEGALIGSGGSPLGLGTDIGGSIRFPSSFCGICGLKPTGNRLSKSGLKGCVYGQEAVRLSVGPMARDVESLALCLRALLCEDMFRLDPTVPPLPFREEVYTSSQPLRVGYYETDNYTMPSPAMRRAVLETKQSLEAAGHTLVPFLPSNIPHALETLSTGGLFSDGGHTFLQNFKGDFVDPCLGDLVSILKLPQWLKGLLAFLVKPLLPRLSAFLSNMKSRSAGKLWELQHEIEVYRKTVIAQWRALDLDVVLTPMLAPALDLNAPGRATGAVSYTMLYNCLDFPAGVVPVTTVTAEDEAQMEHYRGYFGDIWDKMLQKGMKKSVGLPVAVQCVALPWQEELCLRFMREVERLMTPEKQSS

[3] = target: Histone-lysine N-methyltransferase EZH2 (Homo sapiens) (UniProt Q15910); assay: Binding affinity to EZH2 (unknown origin) assessed as residence time
Sequence of Histone-lysine N-methyltransferase EZH2 (Homo sapiens) (Q15910 whole entry, looked up): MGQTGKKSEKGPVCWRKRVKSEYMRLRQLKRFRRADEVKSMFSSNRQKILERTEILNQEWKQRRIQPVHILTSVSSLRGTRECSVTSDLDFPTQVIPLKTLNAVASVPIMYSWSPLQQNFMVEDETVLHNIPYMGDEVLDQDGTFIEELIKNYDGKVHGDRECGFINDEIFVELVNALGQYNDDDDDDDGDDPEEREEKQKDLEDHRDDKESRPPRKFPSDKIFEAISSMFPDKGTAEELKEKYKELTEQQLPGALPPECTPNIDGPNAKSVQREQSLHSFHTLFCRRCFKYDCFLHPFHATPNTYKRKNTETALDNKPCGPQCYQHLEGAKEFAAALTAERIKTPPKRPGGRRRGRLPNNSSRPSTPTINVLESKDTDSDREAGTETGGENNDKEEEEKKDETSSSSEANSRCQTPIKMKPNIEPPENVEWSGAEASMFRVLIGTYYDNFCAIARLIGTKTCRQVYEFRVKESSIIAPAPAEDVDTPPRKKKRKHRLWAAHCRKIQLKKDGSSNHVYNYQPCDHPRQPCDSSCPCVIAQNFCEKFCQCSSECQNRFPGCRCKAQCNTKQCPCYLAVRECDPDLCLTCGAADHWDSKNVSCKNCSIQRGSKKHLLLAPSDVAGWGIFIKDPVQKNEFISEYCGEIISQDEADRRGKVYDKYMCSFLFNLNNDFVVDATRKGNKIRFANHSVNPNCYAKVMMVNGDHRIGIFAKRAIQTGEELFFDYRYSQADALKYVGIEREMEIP

TIME [1] [h] | T1/2 [2] [h] | TIME [3] [h] | Structure (SMILES)
27.1 | – | – | Cc1ccc(-n2nc(C(C)(C)C)cc2NC(=O)NCCN2CCN(C(=O)Nc3cc(C(C)(C)C)nn3-c3ccc(C)cc3)CC2)cc1
– | > 10 | – | O=C(CCCCCCc1ccccc1)c1ncc(-c2ccccn2)o1
– | – | 1.03 | Cc1ccc(CNC(=O)c2cc(-c3ccnc(N4CCN(C)CC4)c3)cc3c2ccn3C(C)C)c(=O)[nH]1
< 0.0233 | – | – | Cc1ccc(-n2nc(C(C)(C)C)cc2NC(=O)NCCN2CCOCC2)cc1
– | – | 0.717 | CCCc1cc(C)[nH]c(=O)c1CNC(=O)c1cc(-c2ccnc(N3CCN(C)CC3)c2)cc2c1ccn2C(C)C
– | > 10 | – | O=C(CCCCCCc1ccccc1)c1nc2ncccc2o1
